What was measured:
test animal tumor models = conditions: co-administered with PALA, tetrahydrouridine and 5-fluoro-2′deoxyctidine, fractionated x-ray treatments; cited from earlier work
cellular DNA = conditions: after incorporation into cellular DNA in vitro; 22-45% of thymine substituted; cited from earlier work
CD1 mice = assay: In vivo tolerance of tungsten heteropolyanions in mice; conditions: injected into CD1 mice
Experimental: A column containing carboxymethyl cellulose medium was prepared and charged with tetramethylammonium acetate, then rinsed with deionized water. Silicotungstic acid (H4SiW12O40.30H2O, 10 mg/ml in water) was injected onto the column and ion exchanged to produce the cluster surrounded and charge-shielded by quaternary ammonium ions.
A complex between the quaternary cation, tetramethylammonium was also formed by mixing equimolar amounts of H4SiW12O40.30H2O, 10 mg/ml in water and tetramethylammonium bromide, 100 mg/ml in water. Some white precipitate was formed that was removed by centrifugation at 13 k×g for 10 minutes, then filtering through a molecular filter, Amicon Centricon 30, that only passes molecules less than 30,000 Daltons. […] Dilutions were prepared and injected into CD1 mice. Good tolerance and normal weight gain was found at blood concentrations of approximately 5 mg/ml, whereas the uncomplexed heteropoltungstate was lethal at 1 mg/ml.

Nc1nc(=O)n([C@H]2C[C@H](O)[C@@H](CO)O2)cc1Cl [5-chloro-2′-deoxycytidine]
dose enhancement (test animal tumor models): threefold

O=c1[nH]c(=O)n([C@H]2C[C@H](O)[C@@H](CO)O2)cc1I [iododeoxyuridine]
radiotherapeutic advantage (factor) (cellular DNA): about 3

Silicotungstic acid [uncomplexed heteropoltungstate]
lethal blood concentration (CD1 mice): 1 mg/mL
